Measurements reported in PubChem BioAssay AID2060494 (Molecular Pharmacology Branch, DTP, NCI, 2025).

Tested on: 435261-313-R-J1-PDC complex spheroid viability
Assay: Anticancer human tumor 435261-313-R-J1-PDC patient-derived colon adenocarcinoma cell line growth inhibition [GQUAD]
Conditions: for IC50: curve of first compound; for viability, T/C: stronger effect = lower value; active = viability on the fitted dose curve at most 10% of control; inactive = the rest
Description: DNA G-quadruplex Stabilizer Agents in Combinations in Complex Spheroids
A high-throughput screen of multi-cell type tumor spheroids was designed to identify active combinations of DNA G-quadruplex stabilizer agents and targeted small molecules. Complex spheroids include a stromal component modeled by human endothelial cells (HUVEC) and fibroblasts modeled by human mesenchymal stem cells (MSCs). The concentration ranges selected for each drug and investigational agent were based upon clinically achievable concentrations if the clinical Cmax of the agent was known.
Compounds. The drugs and investigational agents: pidnarulex (CX-5461; NSC782164), APTO-253 (NSC789042), BRACO-19 (NSC847499), peposertib (NSC802822), ceralasertib (NSC780249), elimusertib (NSC800525), camonsertib (NSC841442), AZD-1390 (NSC803789), olaparib (NSC753686), talazoparib (NSC767125), ART-558 (NSC835418), sotorasib (NSC818433), MRTX-1133 (NSC836407), SN-38 (NSC673596), topotecan (NSC609699), etoposide (NSC141540), doxorubicin (NSC123127), gemcitabine (NSC613327), 5-fluorouracil (NSC19893), paclitaxel (NSC125973), vemurafenib (NSC761431), panobinostat (NSC761190), R-306465 (JNJ-16241199; NSC773264), adavosertib (NSC754352), TP-3654 (NSC805149), carboplatin (NSC241240), KSQ-4279 (NSC840948), and staurosporine (NSC755774) were obtained from the National Cancer Institute (NCI) Developmental Therapeutics Program Chemical Repository (34). The FDA-approved anticancer drug set is available from the NCI Developmental Therapeutics Program. […] The stock solutions were prepared in dimethyl sulfoxide (DMSO, Sigma-Aldrich, St. Louis, MO, cat. D2650) at 800-fold the tested concentration and stored at -70 degrees C prior to their use. All drugs and investigational agents were tested over a range starting from a high concentration at or near the clinical Cmax and decreasing in half-log increments. If the clinical Cmax for an agent had not been determined, the highest concentration tested was 10 microM.
2.3 Cell Culture. All cells were maintained in an incubator at 37 degrees C and 5% CO2 with 95% humidity. The PDC lines were cultured according to standard operating procedures established by the NCI PDMR. All PDCs were thawed and cultured in Matrigel-coated flasks prepared with a working solution of 1X Ham's F-12 nutrient mix, without supplementation (Invitrogen, cat. 11765054), 100 U/mL penicillin-streptomycin (Invitrogen, cat. 15140122), and 2.5% Matrigel (Corning Inc., cat. 354248) for the first three passages. The 857933-349-R-J2-PDC line was cultured in 6C/Colon 1B media, which includes advanced DMEM/F-12 (Thermo Fisher Scientific, cat. 12634028), 10 mM HEPES (Thermo Fisher Scientific, cat. 15630080), 1X GlutaMAX supplement (Thermo Fisher Scientific, cat. 35050061), 0.1 mg/mL primocin (InvivoGen, cat. ant-pm-2), 10% defined fetal bovine serum, heat inactivated (HyClone Laboratories Inc., cat. SH30070.03HI), 50% L-WRN conditioned media (ATCC, cat. CRL-3276), 1.25 mM N-Acetyl-L-cysteine (Sigma-Aldrich, cat. A9165), 10 mM nicotinamide (Sigma-Aldrich, cat. N0636), 1X B-27 supplement (Thermo Fisher Scientific, cat. 17504044), 1X N-2 supplement (Thermo Fisher Scientific, cat. 17502048), 10 microM Y-27632 dihydrochloride (Tocris Bioscience, cat. 1254), and 50 ng/mL human EGF recombinant protein (Thermo Fisher Scientific, cat. PHG0311). The 485176-168-R4-J1-PDC line was cultured in Panc media, which includes all 6C/Colon 1B media components plus 100 ng/mL human FGF-10 (Thermo Fisher Scientific, cat. 100-26), 500 nM SB-431542 (Selleckchem, cat. S1067), and gastrin (Tocris, cat. 3006).
[…]

[1] = second compound 0.0316 µM, first compound 0.0316 µM
[2] = second compound 0.0316 µM, first compound 0.1 µM
[3] = second compound 0.0316 µM, first compound 0.316 µM
[4] = second compound 0.0316 µM, first compound 1 µM
[5] = second compound 0.0316 µM, first compound 3.16 µM
[6] = second compound 0.0316 µM, first compound 10 µM
[7] = second compound 0.1 µM, first compound 0.0316 µM
[8] = second compound 0.1 µM, first compound 0.1 µM
[9] = second compound 0.1 µM, first compound 0.316 µM
[10] = second compound 0.1 µM, first compound 1 µM
[11] = second compound 0.1 µM, first compound 3.16 µM
[12] = second compound 0.1 µM, first compound 10 µM
[13] = second compound 0.316 µM, first compound 0.0316 µM
[14] = second compound 0.316 µM, first compound 0.1 µM
[15] = second compound 0.316 µM, first compound 0.316 µM
[16] = second compound 0.316 µM, first compound 1 µM
[17] = second compound 0.316 µM, first compound 3.16 µM
[18] = second compound 0.316 µM, first compound 10 µM
[19] = second compound 1 µM, first compound 0.0316 µM
[20] = second compound 1 µM, first compound 0.1 µM
[21] = second compound 1 µM, first compound 0.316 µM
[22] = second compound 1 µM, first compound 1 µM
[23] = second compound 1 µM, first compound 3.16 µM
[24] = second compound 1 µM, first compound 10 µM
[25] = second compound 3.16 µM, first compound 0.0316 µM
[26] = second compound 3.16 µM, first compound 0.1 µM
[27] = second compound 3.16 µM, first compound 0.316 µM
[28] = second compound 3.16 µM, first compound 1 µM
[29] = second compound 3.16 µM, first compound 3.16 µM
[30] = second compound 3.16 µM, first compound 10 µM
[31] = second compound 10 µM, first compound 0.0316 µM
[32] = second compound 10 µM, first compound 0.1 µM
[33] = second compound 10 µM, first compound 0.316 µM
[34] = second compound 10 µM, first compound 1 µM
[35] = second compound 10 µM, first compound 3.16 µM
[36] = second compound 10 µM, first compound 10 µM
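Note: spheroids exposed to the agents for seven days before readout.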
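Throughout, for viability, T/C: percent of vehicle control viability with DMSO wells as 100%.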

CC(=O)O[C@H]1C(=O)[C@@]2(C)[C@H]([C@H](OC(=O)c3ccccc3)[C@]3(O)C[C@H](OC(=O)[C@H](O)[C@@H](NC(=O)c4ccccc4)c4ccccc4)C(C)=C1C3(C)C)[C@]1(OC(C)=O)CO[C@@H]1C[C@@H]2O + CN(C)c1ccc(Nc2c3ccc(NC(=O)CCN4CCCC4)cc3nc3cc(NC(=O)CCN4CCCC4)ccc23)cc1
> 10000 nM: IC50 (second compound 0.0316 µM) | IC50 (second compound 0.1 µM) | IC50 (second compound 0.316 µM) | IC50 (second compound 1 µM) | IC50 (second compound 3.16 µM)
inactive: viability, T/C [1] 94.3% | viability, T/C [2] 78.6% | viability, T/C [3] 84.6% | viability, T/C [4] 69.9% | viability, T/C [5] 69.1% | viability, T/C [6] 76.5% | viability, T/C [7] 71.9% | viability, T/C [8] 72.5% | viability, T/C [9] 77.4% | viability, T/C [10] 62% | viability, T/C [11] 75.3% | viability, T/C [12] 70.5% | viability, T/C [13] 72.5% | viability, T/C [14] 82.5% | viability, T/C [15] 73.7% | viability, T/C [16] 69.2% | viability, T/C [17] 68.4% | viability, T/C [18] 61.5% | viability, T/C [19] 80.4% | viability, T/C [20] 61.5% | viability, T/C [21] 59.4% | viability, T/C [22] 63.5% | viability, T/C [23] 73.3% | viability, T/C [24] 63.6% | viability, T/C [25] 52.3% | viability, T/C [26] 52.6% | viability, T/C [27] 48.6% | viability, T/C [28] 60.9% | viability, T/C [29] 52.8% | viability, T/C [30] 55.1% | viability, T/C [31] 31.6% | viability, T/C [32] 19.9% | viability, T/C [33] 23.6% | viability, T/C [34] 21.2% | viability, T/C [35] 27.5% | viability, T/C [36] 16.8%
< 31.6 nM: IC50 (second compound 10 µM)

COc1cccc2c1C(=O)c1c(O)c3c(c(O)c1C2=O)CC(O)(C(=O)CO)CC3OC1CC(N)C(O)C(C)O1 (centres undefined) + CN(C)c1ccc(Nc2c3ccc(NC(=O)CCN4CCCC4)cc3nc3cc(NC(=O)CCN4CCCC4)ccc23)cc1
152 nM: IC50 (second compound 3.16 µM)
582 nM: IC50 (second compound 0.316 µM)
491 nM: IC50 (second compound 0.0316 µM)
< 31.6 nM: IC50 (second compound 10 µM)
inactive: viability, T/C [1] 83.2% | viability, T/C [2] 71.2% | viability, T/C [3] 65.4% | viability, T/C [4] 26.9% | viability, T/C [7] 73.4% | viability, T/C [8] 87% | viability, T/C [9] 78.7% | viability, T/C [10] 32.1% | viability, T/C [13] 76.3% | viability, T/C [14] 79.1% | viability, T/C [15] 70.5% | viability, T/C [16] 31.5% | viability, T/C [19] 83% | viability, T/C [20] 69.8% | viability, T/C [21] 58.7% | viability, T/C [22] 31.9% | viability, T/C [25] 46.8% | viability, T/C [26] 62.5% | viability, T/C [27] 42% | viability, T/C [28] 16.4% | viability, T/C [31] 37.7% | viability, T/C [32] 28% | viability, T/C [33] 17.7% | viability, T/C [34] 12%
439 nM: IC50 (second compound 1 µM)
active: viability, T/C [5] 2.29% | viability, T/C [6] 5.25% | viability, T/C [11] 3.52% | viability, T/C [12] 4.61% | viability, T/C [17] 2.47% | viability, T/C [18] 2.91% | viability, T/C [23] 1.79% | viability, T/C [24] 3.08% | viability, T/C [29] 1.33% | viability, T/C [30] 3.49% | viability, T/C [35] 2.28% | viability, T/C [36] 3.53%
644 nM: IC50 (second compound 0.1 µM)
